From patent US20220324897A1, “CRYSTAL FORM OF SGLT INHIBITOR AND APPLICATION THEREOF” (SHANDONG DANHONG PHARMACEUTICAL CO., LTD., priority 2019, published 2022)

Tests used:
[1] = tested on: SD rats; assay: Pharmacodynamic study in rats OGTT model; assay type: in vivo, rat; conditions: for OGTT Blood glucose levels AUC0-2 hr: SD rats, mean ± standard error
Experimental: SD rats, male, aged 7-8 weeks, purchased from Zhejiang Weitonglihua Experimental Animal Technology Co. Ltd. are maintained in a special pathogen-free environment, with 4 rats in a single ventilation cage. Beddings and water in all cages are sterilized prior to use. All animals can freely obtain a standard certified commercial laboratory diet.
After the animals are adapted to the environment for one week, they are fasted for 16 hours in a metabolic cage, and randomly divided into different groups according to fasting blood glucose and body weight. The animals are administered with a drug or solvent (2 mL/kg), followed by immediately administration of 50% glucose solution (2 g/kg, 4 mL/kg), 2 hours after the administration of glucose solution, the feed is recovered, and blood samples are collected at 0 min, 15 min, 30 min, 45 min, 60 min, and 120 min for blood glucose testing. All values are expressed as average values. Statistical analysis is carried out using Graphpad Prism 6 double factor variance analysis and evaluated with Tukey's multiple comparison tests. P values less than 0.05 are considered to have statistical significance.

[2] = Solid stability test of crystal form A; assay type: physicochemical
Experimental: Each part is placed at the bottom of a HPLC vial and spread into a thin layer. Samples placed in a constant temperature and constant humidity box at 60° C./75% RH and samples placed in a 92.5% RH dryer are sealed with a sealing film on the bottle mouth, and some small holes are made in the sealing film to ensure that the sample can be brought into full contact with the ambient air. Samples placed at 60° C., or under lights or shading conditions are tightly capped (wherein the samples under shading conditions are packaged with a tin foil paper).

[3] = Hygroscopicity study by dynamic vapor sorption (DVS); assay type: physicochemical; conditions: 25° C. and 80% RH
Experimental: Dynamic Vapor Sorption (DVS) Method of the Present Invention
Instrument Model: […] Advantage-1 dynamic vapor adsorber
Test conditions: Sample (10-30 mg) is placed in the DVS sample tray for testing.
Detailed DVS parameters are as follows:
Balance: dm/dt=0.002%/min (shortest: 10 min, longest: 180 min)
RH (%) test step range: 0-95-0
Hygroscopicity evaluation and classification are as follows:
SMS DVS Advantage Dynamic Vapor Sorption Intrinsic

[4] = Shading lights, test at the same time with the visible lights + ultraviolet lights group
[5] = Shading lights, test at the same time with the visible lights group
[6] = Visible lights + Ultraviolet lights, illuminance reaches 200 W · hrs/m^2
[7] = Visible lights, illuminance reaches 1.2E+06 Lux · hrs

For `CCOc1ccc(Cc2cc([C@@H]3O[C@H](SC)[C@@H](O)[C@H](O)[C@H]3O)ccc2Cl)cc1` [Sotagliflozin, reference compound], the OGTT Blood glucose levels AUC0-2 hr ([1]; 3 mg/kg) was 1050 mmol/L/min.
For `CCc1ccc([C@@H]2O[C@H](SC)[C@@H](O)[C@H](O)[C@H]2O)cc1Cc1ccc(C2=CCC(F)(F)CC2)cc1`, the Crystal form ([2]; 0 day) was “Crystal form A”, the “Purity (area %)” value ([2]; 0 day) was 96.48 area % and the Crystal form ([2]; 60° C., 5 days) was “Crystal form A”. The “Purity (area %)” value ([2]; 60° C., 5 days) was 96.38 area %, the Crystal form ([2]; 60° C., 10 days) was “Crystal form A” and the “Purity (area %)” value ([2]; 60° C., 10 days) was 96.41 area %. For the same compound, the Crystal form ([2]; 60° C./75% RH, 1 months) was “Crystal form A”, the “Purity (area %)” value ([2]; 60° C./75% RH, 1 months) was 96.31 area % and the Crystal form ([2]; 60° C./75% RH, 2 months) was “Crystal form A”. For the same compound, the “Purity (area %)” value ([2]; 60° C./75% RH, 2 months) was 96.39 area %, the Crystal form ([2]; 60° C./75% RH, 3 months) was “Crystal form A” and the “Purity (area %)” value ([2]; 60° C./75% RH, 3 months) was 96.37 area %. For the same compound, the Crystal form ([2]; 92.5% RH, 5 days) was “Crystal form A”, the “Purity (area %)” value ([2]; 92.5% RH, 5 days) was 96.41 area % and the Crystal form ([2]; 92.5% RH, 10 days) was “Crystal form A”. For the same compound, the “Purity (area %)” value ([2]; 92.5% RH, 10 days) was 96.47 area %, the Crystal form [2, 4] was “Crystal form A” and the “Purity (area %)” value [2, 4] was 96.43 area %. For the same compound, the Crystal form [2, 5] was “Crystal form A”, the “Purity (area %)” value [2, 5] was 96.44 area % and the Crystal form [2, 6] was “Crystal form A”. The “Purity (area %)” value [2, 6] was 95.75 area %, the Crystal form [2, 7] was “Crystal form A” and the “Purity (area %)” value [2, 7] was 96.29 area %. The “Solid stability, conclusion” value ([2]; all tested conditions of Table 3) was “Conclusion: The crystal forms A of compound of formula (I) has good stability”, the Hygroscopicity classification [3] was “almost no hygroscopicity” and the “ΔW, weight gain caused by hygroscopicity” value [3] was 0.1483%. For the same compound, the OGTT Blood glucose levels AUC0-2 hr ([1]; 1 mg/kg) was 1070 mmol/L/min, the OGTT Blood glucose levels AUC0-2 hr ([1]; 3 mg/kg) was 977 mmol/L/min and the OGTT Blood glucose levels AUC0-2 hr ([1]; 10 mg/kg) was 881 mmol/L/min. For the same compound, the “Effect on blood glucose level, AUC0-2hr, conclusion” value ([1]; rat OGTT, in 2 hours) was “effectively and significantly reduce the blood glucose level”.
